This note sets out measurements from patent publication US12037350B2, “Compositions and methods for the prevention and/or treatment of mitochondrial disease, including Friedreich's ataxia” (Stealth BioTherapeutics Inc., priority 2020, dated 2024).

In experiment [1] the test system is frataxin deficient fibroblasts (GM03665) from Friedreich's ataxia patient. Kind of experiment: Frataxin Deficient Fibroblast Viability Assay (BSO Assay). The format is cell-based. The following applies: for protection against BSO induced cell death (in words): BSO Assay, text statement; for EC50: Homo sapiens, Fibroblast, FA patient fibroblasts pretreated with compound, BSO 10 mM, MTT after 48 hrs. As to the method:
Example 12: Frataxin Deficient Fibroblast Viability Assay (the “BSO Assay”)
This Example was used to evaluate the various new compositions for their potential efficacy in the treatment of Friedreich's Ataxia (FA or FRDA)—substantially as described in the above cited Reference (Matthias et al.).
The stock solutions of the test articles (and control compounds) were prepared in dimethyl sulfoxide (DMSO at 10 mM), Working stock solutions (2 times concentrated) were prepared on the day of the experiment in respective cell culture medium to be used for assay (detailed medium description below). A listing of compounds used as test articles in this Example 12 are found in Table 1, below.
A patient derived frataxin deficient fibroblast cell line was obtained from Coriell Institute. More specifically, the following cell lines/DNA samples were obtained from the NIGMS Human Genetic Cell Repository at the Coriell Institute for Medical Research: GM03665. To evaluate importance of various growth conditions on cell susceptibility to BSO toxicity cells were grown on:
MEM (Sigma-Aldrich) 15% Fetal Bovine Serum (FBS) without growth factors;
MEM (Sigma-Aldrich) 15% FBS with growth factors (Catalogue number 100-18B, Recombinant Human FGF-basic (154 a.a.) and catalogue number AF-100-15, Animal-Free Recombinant Human EGF from Peprotech);
MEM199/MEM EBS (Bioconcept Ltd.) 10% FBS, insulin 10 μg/ml, L-glutamine 2 mM with growth factors (Catalogue number 100-18B, Recombinant Human FGF-basic (154 a.a.) and catalogue number AF-100-15, Animal-Free Recombinant Human EGF from Peprotech).
To conduct an experiment, fibroblast cells (from all growth conditions) were seeded (100 μL (cells 3×10^3/well) on 96-well plates in MEM199/MEM EBS medium 10% FBS, insulin 10 μg/mL, L-glutamine 2 mM with growth factors and allowed to grow on plate for 24 hrs. After 24 hrs., media was removed and then test compounds of interest were added (100 μL, 2 times concentrated stock) to 96-well plates (end DM80 concentration not exceeding 0.5%) and incubated for 24 hours. Then L-buthionine-sulfoximine (BSO, from Acros Organics, Cat. No. 235520010) was added (100 μL, 2 times concentrated stock) at end concentrations ranging from 1 to 10 mM. Both test compounds and BSO were dissolved in MEM199/MEM EBS medium 10% FBS, insulin 10 μg/mL, L-glutamine 2 mM with growth factors. Cell viability was monitored and either after 24- or 48-hours cell viability was assayed by MTT (Thiazolyl blue tetrazolium bromide) assay. For the MTT assay, media was removed and 100 μL of MTT 1 mg/mL was added, incubated for 2 hours at +37° C., then medium was removed and 100 μL of isopropanol added to dissolve sediment. Absorption was measured at 570 (OD570) and 650 (QD650) nm wavelengths. Control cells (vehicle instead of BSO and compound) and vehicle control (with BSO, but vehicle instead of test compound) were treated in the same manner as ceils with BSO and compound. All cell media contained penicillin and streptomycin 100 U/mL each.
Absorption readouts were processed as follows: ValueΔ=ValueOD570−ValueOD650 and the obtained values were used to calculate cell viability as % of control cell (i.e., no BSO, no compound, just vehicle) viability.
Except as otherwise indicated in Table 1, all samples were run in at least 3 replicates for test compounds and at least 8 replicates for controls (i.e., both control (no BSO, no compound) and vehicle control (i.e., with BSO, no compound). Exact N per data points are indicated in the figures/table legends. Results for the compounds (test articles and controls) tested are listed in Table 1, below.
This is a cell-based assay measuring cytotoxicity which results from oxidative stress subsequent to depletion of endogenous glutathione defense mechanisms. The cells were primary Friedreich Ataxia (FA) patient fibroblasts which were incubated for 48 hrs. in BSO, an inhibitor of gamma glutamyl synthetase, an enzyme required for glutathione production. […]

Experiment [2] concerns HepG2 human hepatocarcinoma cells. Put plainly: Rotenone ATP Assay (Complex I by-pass assay). The experiment is classed as cell-based. As to the method:
Example 13: Rotenone ATP Assay (a Complex I by-Pass Assay)
This assay has been adapted from Haefeli R H, Erb M, Gemperli A C, Robay D, Courdier Fruh I, et al. (2011) NQO1-Dependent Redox Cycling of Idebenone: Effects on Cellular Redox Potential and Energy Levels. PLoS ONE 6(3): e17963. HepG2 human hepatocarcinoma cells are co-incubated with the electron transport chain complex I toxin rotenone +/− compounds of interest and the corresponding effect on ATP synthesis is measured with a bioluminescent substrate.
The stock solutions of the test articles (See Table 1, below for a list of the test articles examined using this assay) were prepared in dimethyl sulfoxide (DMSO at 10 mM). Working stock solutions were prepared on the day of the experiment in glucose free, serum free Dulbecco's modified Eagles medium (DMEM) supplemented with 50 micromolar rotenone.
In brief, HepG2 cells were plated at 25,000 cells per well in low glucose (1 gram/Liter) DMEM medium+10% fetal calf serum and incubated for 24 hours. The following day, the media was decanted and subsequently replaced with glucose free/serum free DMEM which has been supplemented with 50 micromolar rotenone and compound of interest. Serial dilutions of compound were prepared in 3× dilutions beginning at 25 micromolar. The cells were incubated for 60 minutes in a humidified tissue culture incubator. Following incubation, ATP levels were quantified via bioluminescent assay (Promega […] Glo Assay kit) and readings were captured on a standard microplate reader.
ATP bioluminescence is plotted versus the log of compound of interest and data are used to generate EC50 values. Curve fitting is performed using a sigmoidal dose response curve fit function (GraphPad Prism software).
EC50 values were derived from seven-point dose response curves performed on n=3 technical replicates per dose. Robustness of curve fit was assessed as a quality control measure, with an R squared value of at least 0.80 being required for a successful curve fit. Compounds of interest showing an increase in ATP bioluminescence relative to vehicle control were verified in an independent biological replicate of n=3 technical replicates per dose.
This assay is a direct measure of the ability of compounds of interest to restore ATP production under conditions of inhibition of Complex I of the mitochondrial electron transport chain. As the majority of ATP produced via the electron transport chain is thought to derive from Complex I activity, significant impairment in Complex I function has dire biological consequences. Of note, Complex I mutations are thought to drive pathophysiology in multiple mitochondrial diseases, including Leigh syndrome and Leber's Hereditary Optic Neuropathy (LHON), while diminished Complex I activity and the resultant attenuation of ATP production has been shown in neurodegenerative diseases, including Friedreich's Ataxia, Parkinson's Disease and Huntington's Disease. In brief, most compounds were tested in the Rotenone Oxygraph Assay instead of this assay but only Idebenone was active amongst Omaveloxolone, Idebenone and Vatiquinone.

The term EC50 denotes the concentration needed to bring the measured effect to its halfway point.

“Also recorded” adds a separate entry of the source.

In the case of `COC1=C(OC)C(=O)C(CCCCF)=C(C)C1=O` [Compound J, 2-(4-fluorobutyl)-5,6-dimethoxy-3-methylcyclohexa-2,5-diene-1,4-dione], in experiment [1], the “protection against BSO induced cell death (in words)” value (“protection” below) is on record as “not that effective” and the EC50 is greater than 1000 nM. In experiment [2], the “Complex I by-pass activity in Rotenone ATP Assay (in words)” value (shortened to “Complex I by-pass activity”) is on record as “not that effective”.
As to `CC1(C)CC[C@]2(NC(=O)C(C)(F)F)CC[C@]3(C)[C@H](C(=O)C=C4[C@@]5(C)C=C(C#N)C(=O)C(C)(C)[C@@H]5CC[C@]43C)[C@@H]2C1` [Omaveloxolone, reference compound], in experiment [1], the “protection” value is “roughly equivalent in protection as compared with Vatiquinone” and the EC50 turned out to be 149 nM. In addition, the “protection” value in experiment [1] (listed as omaveloxolone) is reported as “displayed anti-ferroptotic activity”. For the same molecule, in experiment [2], the “Complex I by-pass activity” value was “inactive”. In addition, the “ATP Rotenone Assay EC50” value in experiment [2] (HepG2, 50 micromolar rotenone, 60 minutes, ATP bioluminescence) is on record as “Inactive”.
As for `COC1=C(OC)C(=O)C(CCCCCCCCCC(F)(F)F)=C(C)C1=O` [Compound C, 2,3-dimethoxy-5-methyl-6-(10,10,10-trifluorodecyl)cyclohexa-2,5-diene-1,4-dione], in experiment [1], the “protection” value is “best of the test compounds” and the EC50 came to 128 nM. Moreover, the “Complex I by-pass activity” value in experiment [2] is “effective in rescuing cells; also recorded: comparable to that of Idebenone”. Besides, in experiment [2] (Homo sapiens, 1 h, HepG2, 50 micromolar rotenone, 60 minutes, ATP bioluminescence), it took 1440 nM to reach a half-maximal effect (EC50).
